These are literature values, as cited in patent publication US20050158845A1 (priority 2001, published 2005).

For the series, the system named is human hepatocyte and neuroblastoma cells. The conditions noted are these: cited from earlier work.

For the compound `CCOP(=O)(OCC)Oc1ccc([N+](=O)[O-])cc1` [paraoxon], the “effects on hepatocyte and neuroblastoma cell metabolism” value was “opposite effects”.

`CCOP(=S)(OCC)Oc1ccc([N+](=O)[O-])cc1` [parathion]: the “effects on hepatocyte and neuroblastoma cell metabolism” value is “opposite effects”.
